For series [1], the system named is J82 cells. In words: Cellular proliferation assay (CCK8) in J82 cells, combined with Mitomycin C or valrubicin. The format is cell-based, human. On the procedure: J82 cells were transfected with RAG1-40-31 at concentrations of 0.1, 0.5, 1, 5, 10, 25 and 50 nM for 24 hours, and then Mitomycin C at concentrations of 1, 10, 100, 1000 and 10000 nM was added. The combined treatment was carried out with concentrations in pairs. After treatment, the proliferation of cells was detected using CCK8 kit. FIGS. 14A-14B show the relative proliferation proportion of J82 cells after the combined treatment with chemically modified saRNA RAG1-40-31 and valrubicin. […] Control and DMSO are the blank transfection control and the solvent for dilution control, respectively.
J82 cells were transfected with RAG1-40-31 at concentrations of 0.1, 0.5, 1, 5, 10, 25 and 50 nM for 24 hours, and then valrubicin at concentrations of 1, 10, 100, 1000 and 10000 nM was added. The combined treatment was carried out with concentrations in pairs. After treatment, the cellular proliferation was detected by CCK8 kit. FIGS. 15A-15B show the relative proliferation proportion of T24 cells after the combined treatment with chemically modified saRNA RAG1-40-31 and Mitomycin C. […] Control and DMSO are the blank transfection control and the solvent for dilution control, respectively.
(§1) Human bladder cancer cells Ku-7-LG (ATCC), J82 (ATCC) and T24 (ATCC) were cultured in McCoy medium (Gibco) comprising 10% calf serum (Sigma-Aldrich) and 1% penicillin/Streptomycin (Gibco). Cells were cultured at 37° C. under 5% CO2. Ku-7-LG, J82 and T24 cells were plated into 12-well plates at 10×10^4 cells per well, transfected with the small RNA at a concentration of 10 nM (unless otherwise specified) for three days, using RNAiMax (Invitrogen, Carlsbad, CA) according to the manufacturer's instructions. Two replicate wells were set for each treatment.
(§2) Cells were plated in a 96-well plate at 2˜4×10^3 cells/well, cultured overnight, and transfected with the oligonucleotide duplexes. Three days after transfection, CCK8 (Dojindo) was used to detect cellular proliferation following manufacturer's instructions. The experimental steps are briefly described as follows: 10 μL of CCK8 solution was added to each well, incubated at 37° C. for 1 hour, and then the absorbance at 450 nm was measured using a microplate reader.
In this example, chemically modified saRNA RAG1-40-31 was used in combination with clinical chemical agents to evaluate the suppressing effect of the combined agents on cancer cells.

Series [2] has as its system T24 cells. In words: Cellular proliferation assay (CCK8) in T24 cells, alone and combined with Mitomycin C or valrubicin. It is filed as cell-based, human.
Source text: After the transfection, the number of viable cells was detected with a CCK8 kit, and plotted as the percentage of the blank control treatment group. […] A transfection sample without oligonucleotide served as a blank control. Non-specific duplex (dsCon) transfected sample served as a negative control. Data are presented as mean±SD of at least two independent experiments. The values below the dashed line indicate stronger growth inhibitory activity compared to duplex Rag1-40 without chemical modification.
T24 cells were transfected with RAG1-40-31 at concentrations of 0.1, 0.5, 1, 5, 10, 25 and 50 nM for 24 hours, and then Mitomycin C was added at concentrations of 1, 10, 100, 1000 and 10000 nM. The combined treatment was carried out with concentrations in pairs. After treatment, the cellular proliferation was detected by CCK8 kit. FIGS. 16A-16B show the relative proliferation proportion of T24 cells after the combined treatment with chemically modified saRNA RAG1-40-31 and valrubicin. […] Control and DMSO are the blank transfection control and the solvent for dilution control, respectively.
T24 cells were transfected with RAG1-40-31 at concentrations of 0.1, 0.5, 1, 5, 10, 25 and 50 nM for 24 hours, and then valrubicin at concentrations of 1, 10, 100, 1000 and 10000 nM was added. The combined treatment was carried out with concentrations in pairs. After treatment, the cellular proliferation was detected by CCK8 kit.
as §1, §2
It is known that p21 induction by saRNA is that a variety of tumor suppressor factors such as p21 protein suppress the proliferation of cancer cells. To evaluate the effect of chemically modified saRNAs on the function of cancer cells, cells (Ku-7-LG and T24) were transfected with 10 nM unmodified and modified saRNAs for 72 hours, and the cellular proliferation was determined by CCK8. […] Furthermore, there was a correlation between RNA activating activity (FIGS. 7A-7B) and suppression of cellular proliferation activity (FIGS. 8A-8B). Strong p21 activators are usually also strong cytostatics.

Series [3] concerns Rag1-40 target sequence in the 3′ UTR of firefly luciferase, COS-1 cells.
For series [4], the target named is T1, RNase A (Bos taurus, UniProt P61823).
T1 sequence (P61823 27-150): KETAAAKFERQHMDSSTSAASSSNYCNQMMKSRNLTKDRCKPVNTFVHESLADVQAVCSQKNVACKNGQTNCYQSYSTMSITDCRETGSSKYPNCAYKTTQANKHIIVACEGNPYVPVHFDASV
Protocol: The duplexes obtained at each time point above were each added to 1 μL of 10× loading buffer, and then frozen in liquid nitrogen. After incubation, all samples were detected for the double-stranded RNA by 4% agarose gel electrophoresis, and the content of each duplex was analyzed by Image J software.
The duplexes obtained at each time point indicated above were each added to 1 μL of 10× loading buffer, and then frozen in liquid nitrogen. After incubation, all samples were detected for the double-stranded RNA by 4% agarose gel electrophoresis, and the content of each duplex was analyzed by Image J software.
saRNA (1.5 μL, 10 μM) was incubated at a final concentration of 0.02 mg/mL in PBS in the presence of RNase A (Amresco, OH, USA) at 37° C. for different durations. At the end of the incubation, the mixture was snap frozen in liquid nitrogen to stop nuclease activity. Samples were analyzed on a 4% agarose gel and examined for duplex degradation.
All chemically modified duplexes (Rag1-40-1 to Rag1-40-32) were incubated with 0.02 μg/L of RNase A for different durations (0 to 96 hours). At the end of the incubation, the size and amount of duplexes were detected by agarose gel electrophoresis.

Oligonucleotides are written 5' to 3', each unit as a sugar letter and its base; * is a phosphorothioate linkage, no mark a phosphodiester; rarer units and linkages stand in square brackets, end groups in braces. Plain capitals give the bases only. m = 2'-O-methyl; r = 2'-OH (RNA); f = 2'-fluoro

Regarding `CO[C@@]12[C@H](COC(N)=O)C3=C(C(=O)C(C)=C(N)C3=O)N1C[C@@H]1N[C@@H]12` [MMC, Mitomycin C, reference compound], the “Relative proliferation proportion of J82 cells” value amounted to 99.9% in series [1] (RAG1-40-31 0 nM + MMC 1 nM); 99.9% in series [1] (RAG1-40-31 0 nM + MMC 10 nM); 99.9% in series [1] (RAG1-40-31 0 nM + MMC 100 nM); 100.0% in series [1] (RAG1-40-31 0 nM + MMC 1000 nM); 100.0% in series [1] (RAG1-40-31 0 nM + MMC 10000 nM). The “Relative proliferation proportion of T24 cells” value in series [2] (RAG1-40-31 0 nM + MMC 1 nM), in series [2] (RAG1-40-31 0 nM + MMC 10 nM), in series [2] (RAG1-40-31 0 nM + MMC 100 nM), in series [2] (RAG1-40-31 0 nM + MMC 1000 nM) and in series [2] (RAG1-40-31 0 nM + MMC 10000 nM) was 100.0% each time.
On to `CCCCC(=O)OCC(=O)[C@]1(O)Cc2c(O)c3c(c(O)c2[C@@H](O[C@H]2C[C@H](NC(=O)C(F)(F)F)[C@H](O)[C@H](C)O2)C1)C(=O)c1c(OC)cccc1C3=O` [valrubicin, Valrubicin, reference compound], for which the “Relative proliferation proportion of J82 cells” value in series [1] (RAG1-40-31 0 nM + valrubicin 1 nM), in series [1] (RAG1-40-31 0 nM + valrubicin 10 nM), in series [1] (RAG1-40-31 0 nM + valrubicin 100 nM), in series [1] (RAG1-40-31 0 nM + valrubicin 1000 nM) and in series [1] (RAG1-40-31 0 nM + valrubicin 10000 nM) was 100.0% each time. Besides, the “Relative proliferation proportion of T24 cells” value in series [2] (RAG1-40-31 0 nM + valrubicin 1 nm), in series [2] (RAG1-40-31 0 nM + valrubicin 10 nm), in series [2] (RAG1-40-31 0 nM + valrubicin 100 nm), in series [2] (RAG1-40-31 0 nM + valrubicin 1000 nm) and in series [2] (RAG1-40-31 0 nM + valrubicin 10000 nm) was 100.0% each time.
With “Rag1-40-2: saRNA duplex: sense mCmCAACUCAUUCUCCAAGmUmC (SEQ ID NO 5); antisense fUACUfUGGAGAAfUGAGUfUGGfCA (SEQ ID NO 7) (sense CCAACUCAUUCUCCAAGUC; antisense UACUUGGAGAAUGAGUUGGCA; 2'-OMe and 2'-F modifications; modified_base (1)..(19) (1,2,18,19)=2′-O-methyl(2′-OMe); modified_base (1)..(20) (1,5,12,17,20)=2′-fluoro)”, the “off-target effect compared to unmodified Rag1-40, in words” value in series [3] is “mitigated or similar off-target effects”. In series [4], the “time to complete degradation” value was at most 24 h.
On to “Rag1-40-4: saRNA duplex: sense mCmCAACUCAUUCUCCAAGmUmC (SEQ ID NO 5); antisense fUACUfUGGAGAAfUGAGUfUGG*fC*A (SEQ ID NO 9) (sense mCmCrArArCrUrCrArUrUrCrUrCrCrArArGmUmC; antisense fUrArCrUfUrGrGrArGrArAfUrGrArGrUfUrGrG*fC*rA)”, for which the “off-target effect compared to unmodified Rag1-40, in words” value in series [3] is listed as “completely inhibited”. The “time to complete degradation” value in series [4] was at most 24 h.
Turning to “Rag1-40-6: saRNA duplex: sense mCmCAACUCAUUCUCCAAGmUmC (SEQ ID NO 5); antisense fU*A*fCfUfUGGAGAAfUGAGfUfUGG*fC*A (SEQ ID NO 11) (sense mCmCrArArCrUrCrArUrUrCrUrCrCrArArGmUmC; antisense fU*rA*fCfUfUrGrGrArGrArAfUrGrArGfUfUrGrG*fC*rA)”, in series [3], the “off-target effect compared to unmodified Rag1-40, in words” value is “mitigated or similar off-target effects”. Moreover, the “degradation of duplex at 96 hours” value in series [4] was “little or no signs of degradation”.
Turning to “Rag1-40-7: saRNA duplex: sense mCmCAACUCAUUCUCCAAGmUmC (SEQ ID NO 5); antisense U*A*fCfUfUGGAGAAfUGAGfUfUGG*fC*A (SEQ ID NO 12) (sense mCmCrArArCrUrCrArUrUrCrUrCrCrArArGmUmC; antisense rU*rA*fCfUfUrGrGrArGrArAfUrGrArGfUfUrGrG*fC*rA)”, the “off-target effect compared to unmodified Rag1-40, in words” value in series [3] is “mitigated or similar off-target effects”. The “degradation of duplex at 96 hours” value in series [4] is given as “little or no signs of degradation”.
For “Rag1-40-10: saRNA duplex: sense fCfCAACUCAUUCUCCAAGfUfC (SEQ ID NO 14); antisense fUACUfUGGAGAAfUGAGUfUGGfCA (SEQ ID NO 7) (sense CCAACUCAUUCUCCAAGUC; antisense UACUUGGAGAAUGAGUUGGCA; 2'-F modifications; modified_base (1)..(19) (1,2,18,19)=2′-fluoro; modified_base (1)..(20) (1,5,12,17,20)=2′-fluoro)”, the “off-target effect compared to unmodified Rag1-40, in words” value in series [3] is given as “completely inhibited”. The “time to complete degradation” value in series [4] was at most 24 h.
Regarding “Rag1-40-12: saRNA duplex: sense fCfCAACUCAUUCUCCAAGfUfC (SEQ ID NO 14); antisense fUACUfUGGAGAAfUGAGUfUGG*fC*A (SEQ ID NO 9) (sense CCAACUCAUUCUCCAAGUC; antisense UACUUGGAGAAUGAGUUGGCA; 2'-F and phosphorothioate modifications; modified_base (1)..(19) (1,2,18,19)=2′-fluoro; modified_base (1)..(20) (1,5,12,17,20)=2′-fluoro; modified_base (19)..(21) (19,20,21)=phosphorothioate (PS) backbone modification)”, the “off-target effect compared to unmodified Rag1-40, in words” value in series [3] is listed as “mitigated or similar off-target effects”. The “time to complete degradation” value in series [4] was at most 24 h.
Take “Rag1-40-18: saRNA duplex: sense mCmCAACUCAUUCUCCAAG*U*C (SEQ ID NO 15); antisense fUACUfUGGAGAAfUGAGUfUGGfCA (SEQ ID NO 7) (sense CCAACUCAUUCUCCAAGUC; antisense UACUUGGAGAAUGAGUUGGCA; 2'-OMe, 2'-F, phosphorothioate modifications; modified_base (1)..(2) (1,2)=2′-O-methyl(2′-OMe); modified_base (17)..(19) (17,18,19)=phosphorothioate (PS) backbone modification; modified_base (1)..(20) (1,5,12,17,20)=2′-fluoro)”: the “off-target effect compared to unmodified Rag1-40, in words” value in series [3] is given as “mitigated or similar off-target effects”. The “time to complete degradation” value in series [4] was at most 24 h.

The values above are taken from patent US20240301409A1, “Chemically Modified Small Activating RNA” (RACTIGEN THERAPEUTICS, priority 2021, published 2024).
